Entries after “also recorded” stand apart in the source; their conditions may differ.
Legend:
Format in all cases: cell-based
rTRPV1 (wt) [1] = biological target: T1, rTRPV1 (wt) (Rattus norvegicus, UniProt O35433); assay: Whole-cell patch-clamp, HEK293T cells transiently expressing wt rTRPV1; set-up: expressed in transfected cells; host or cells: HEK293T, transient, pCDNA3.1+
Protocol: (§1) The current-voltage relationship was determined using whole-cell patch-clamp recordings.
(§2) Patch clamp experiments were executed using HEK293T cells in the whole cell or outside-out configuration 24 hrs after transfection, as previously described. 30,000 cells were plated on glass coverslips (12 mm) coated with relevant amounts of poly-D-Lysine (PDL; Sigma-Aldrich, MO, USA) and/or Matrigel (BD-biosciences, MA, USA) according to the configuration (see below). Patch electrodes were fabricated from borosilicate glass using the P1000 Micropipette Puller (Sutter Instrument, CA, USA) and fire-polished using the microforge MF-900 (Narishige, Tokyo, Japan). […] Recordings were performed using Axopatch 200B patch clamp amplifier (Molecular Devices, CA, USA), and data was collected and analyzed using pClamp 10.2 software (Molecular Devices, CA, USA). […]
(§3) HEK293T cells were plated on coverslips pre-coated with 0.05 mg/ml poly-D-Lysine (PDL; Sigma-Aldrich, MO, USA) and 1 μg/ml Matrigel (BD-biosciences, Bedford, MA, USA) three hrs prior to recordings. […] To avoid potential voltage errors due to receptor overexpression, dose responses were recorded at −40 mV, with the maximal current limited to ~2.5 nA. […] Proton response recordings were performed with 50 μM Amiloride in the bath solution (Sigma-Aldrich, MO, USA) in order to block natively expressed ASICs[43]. […]

[2] = biological target: T2, rTRPV1 concatemer 3wt/ya (one Y511A subunit) (Rattus norvegicus, UniProt O35433, Y511A); assay: Whole-cell patch-clamp, HEK293T cells expressing 3wt/ya concatemer; conditions: −40 mV
T2 construct: expressed in transfected cells; host or cells: HEK293T, transient, pCDNA3.1+
Protocol: (§4) Next, we determined the concentration-response relationship of the various concatemeric constructs, using the whole-cell configuration of the patch clamp at holding voltage of −40 mV.
as §2, with “below).” for “below). Patch electrodes were fabricated from borosilicate glass using the P1000 Micropipette Puller (Sutter Instrument, CA, USA) and fire-polished using the microforge MF-900 (Narishige, Tokyo, Japan).”
(§5) HEK293T cells were plated on coverslips pre-coated with 0.05 mg/ml poly-D-Lysine (PDL; Sigma-Aldrich, MO, USA) and 1 μg/ml Matrigel (BD-biosciences, Bedford, MA, USA) three hrs prior to recordings. […] To avoid potential voltage errors due to receptor overexpression, dose responses were recorded at −40 mV, with the maximal current limited to ~2.5 nA. […] Proton response recordings were performed with 50 μM Amiloride in the bath solution (Sigma-Aldrich, MO, USA) in order to block natively expressed ASICs[43].
(§6) Dose response curves were calculated by SigmaPlot software (San Jose, CA) using the sigmoidal Hill equation as follows: […]

[3] = biological target: T3, concatemeric rTRPV1 (4wt) (Rattus norvegicus, UniProt O35433); assay: Single-channel outside-out patch recording, Flp-in TREX HEK293 cells, 4wt; set-up: expressed in transfected cells; host or cells: HEK293T, transient, pCDNA3.1+
Excerpt: (§7) In order to facilitate recording from a single channel, we used an inducible system, Flp-in TREX, which allows doxycycline-controlled construct expression levels. […] The membrane potential was held at +60 mV considering that the conductance of TRPV1 receptor channels is higher at positive potentials. The pipette contained standard intracellular patch solution, and the patch of membrane was continuously perfused with standard extracellular solution.
(§8) Briefly, cells were co-transfected (performed as described above) with pcDNA5/FRT/TO containing the gene of interest and the Flp-recombinase expression vector pOG44 into the Flp-In host cell line (Invitrogen, MA, USA) at a ratio of 1:9, respectively, as previously described.
(§9) Patch clamp experiments were executed using HEK293T cells in the whole cell or outside-out configuration 24 hrs after transfection, as previously described. 30,000 cells were plated on glass coverslips (12 mm) coated with relevant amounts of poly-D-Lysine (PDL; Sigma-Aldrich, MO, USA) and/or Matrigel (BD-biosciences, MA, USA) according to the configuration (see below). Patch electrodes were fabricated from borosilicate glass using the P1000 Micropipette Puller (Sutter Instrument, CA, USA) and fire-polished using the microforge MF-900 (Narishige, Tokyo, Japan). Electrodes were coated with Sylgard (World Precision Instrument, FL, USA) to reduce the capacity of the recording pipette and to improve noise characteristics. […] Recordings were performed using Axopatch 200B patch clamp amplifier (Molecular Devices, CA, USA), and data was collected and analyzed using pClamp 10.2 software (Molecular Devices, CA, USA). All experiments were carried out at room temperature.
Single-channel currents were recorded in the outside-out patch configuration of the patch-clamp technique, as previously described. All single-channel recordings were done using the stable cell line Flp-in TREX 293 cells. Cells were plated on coverslips coated with 0.2 mg/ml PDL one hour prior induction. Doxycycline concentration and induction times for obtaining a membrane patches with a single channel were determined for each construct. Generally, 0.3–1 μg/ml doxycycline was used for 2–4 hrs prior to recordings. Patch electrodes were fire-polished to a resistance of 10–15 MΩ. The pipette solution contained (mM): 130 KCl, 4 NaCl, 2 MgSO4, 0.5 CaCl2, 1 EGTA and 10 HEPES adjusted to pH 7.2 with KOH. Single-channel currents were low-pass filtered at 5 kHz and digitized at 50 kHz. Occasional large brief noise spikes were visually identified and removed from the current traces. Single-channel recordings were analyzed with the pCLAMP 10.2 program Clampfit (Axon Instruments, USA), as previously described. For each concatemeric construct, 150–2000 events were collected from each of 3–5 separate patches. […]

[4] = biological target: T3, concatemeric rTRPV1 (4wt); assay: Whole-cell patch-clamp, HEK293T cells expressing tetrameric concatemer 4wt; set-up: expressed in transfected cells; host or cells: HEK293T, transient, pCDNA3.1+
Protocol: as §1, §4
as §2, with “below).” for “below). Patch electrodes were fabricated from borosilicate glass using the P1000 Micropipette Puller (Sutter Instrument, CA, USA) and fire-polished using the microforge MF-900 (Narishige, Tokyo, Japan).”
as §3

[5] = biological target: T4, rTRPV1 concatemer wt/3ya (three Y511A subunits) (Rattus norvegicus, UniProt O35433, Y511A); assay: Whole-cell patch-clamp, HEK293T cells expressing wt/3ya concatemer
T4 construct: expressed in transfected cells; host or cells: HEK293T, transient, pCDNA3.1+
Protocol: as §4
as §2, with “below).” for “below). Patch electrodes were fabricated from borosilicate glass using the P1000 Micropipette Puller (Sutter Instrument, CA, USA) and fire-polished using the microforge MF-900 (Narishige, Tokyo, Japan).”
as §5, §6

rTRPV1 concatemer wt/3ya = biological target: T5, rTRPV1 concatemer wt/3ya (Rattus norvegicus, UniProt O35433, Y511A); assay: Single-channel outside-out patch recording, Flp-in TREX HEK293 cells, wt/3ya; conditions: for single-channel average amplitude, wt/3ya / unitary conductance, wt/3ya: +60 mV, outside-out
T5 construct: expressed in transfected cells
Excerpt: as §7, §8, §9
Single-channel currents were recorded in the outside-out patch configuration of the patch-clamp technique, as previously described. All single-channel recordings were done using the stable cell line Flp-in TREX 293 cells. Cells were plated on coverslips coated with 0.2 mg/ml PDL one hour prior induction. Doxycycline concentration and induction times for obtaining a membrane patches with a single channel were determined for each construct. Generally, 0.3–1 μg/ml doxycycline was used for 2–4 hrs prior to recordings. Patch electrodes were fire-polished to a resistance of 10–15 MΩ. The pipette solution contained (mM): 130 KCl, 4 NaCl, 2 MgSO4, 0.5 CaCl2, 1 EGTA and 10 HEPES adjusted to pH 7.2 with KOH. Single-channel currents were low-pass filtered at 5 kHz and digitized at 50 kHz. Occasional large brief noise spikes were visually identified and removed from the current traces. Single-channel recordings were analyzed with the pCLAMP 10.2 program Clampfit (Axon Instruments, USA), as previously described. For each concatemeric construct, 150–2000 events were collected from each of 3–5 separate patches. To determine channel amplitude, all-point amplitude histograms were created using data digitally filtered at 2 kHz. To determine channel open probability, traces filtered at 5 kHz were idealized using the half-amplitude threshold crossing method (pCLAMP 10.2)[38].

[6] = biological target: T6, rTRPV1 concatemer 4ya (Y511A in all subunits) (Rattus norvegicus, UniProt O35433, Y511A); assay: Whole-cell patch-clamp, HEK293T cells expressing 4ya concatemer; conditions: capsaicin 100 μM, whole-cell voltage ramps −80 to +80 mV
T6 construct: expressed in transfected cells; host or cells: HEK293T, transient, pCDNA3.1+
Protocol: as §2, §5

[7] = biological target: T7, rTRPV1 concatemer 4qa (E600Q/E648A in all subunits) (Rattus norvegicus, UniProt O35433, E600Q/E648A); assay: Whole-cell patch-clamp, HEK293T cells expressing 4qa concatemer; conditions: capsaicin 1 μM, −40 mV
T7 construct: expressed in transfected cells; host or cells: HEK293T, transient, pCDNA3.1+
Protocol: as §2, §5

[8] = biological target: T3, concatemeric rTRPV1 (4wt); assay: Two electrode voltage clamp, Xenopus laevis oocytes expressing 4wt concatemer; conditions: capsaicin, TEVC
Protocol: as §1
(§10) Stage V–VI Xenopus laevis oocytes were prepared as previously described. Oocytes were injected up to 24 hr after isolation with a total of 5 ng cRNA, and assayed 5–10 days later. Two electrode voltage-clamp recordings were carried out at RT using GeneClamp 500 connected to digidata1322A and pCLAMP 8.2 (Molecular Devices, CA, USA). Electrodes (Sutter Instruments, CA, USA) were filled with 3 M KCl and had resistance of 0.5–1 MΩ. Oocytes were continuously perfused with normal frog ringer (NFR) solution without calcium containing (mM): 115 NaCl, 2.5 KCl, 2 […], and 10 HEPES, pH 7.4 with NaOH.

rTRPV1 (wt) [9] = biological target: T1, rTRPV1 (wt); assay: Two electrode voltage clamp, Xenopus laevis oocytes expressing wt rTRPV1; conditions: capsaicin, TEVC
Protocol: as §1, §10

[10] = biological target: T8, rTRPV1 concatemer 2wt/2ya (two Y511A subunits) (Rattus norvegicus, UniProt O35433, Y511A); assay: Whole-cell patch-clamp, HEK293T cells expressing 2wt/2ya concatemer; conditions: −40 mV
T8 construct: expressed in transfected cells; host or cells: HEK293T, transient, pCDNA3.1+
Protocol: as §4
as §2, with “below).” for “below). Patch electrodes were fabricated from borosilicate glass using the P1000 Micropipette Puller (Sutter Instrument, CA, USA) and fire-polished using the microforge MF-900 (Narishige, Tokyo, Japan).”
as §5, §6

[11] = 2 μM capsaicin, +60 mV, outside-out

T4 sequence (O35433 whole entry, stated change not applied): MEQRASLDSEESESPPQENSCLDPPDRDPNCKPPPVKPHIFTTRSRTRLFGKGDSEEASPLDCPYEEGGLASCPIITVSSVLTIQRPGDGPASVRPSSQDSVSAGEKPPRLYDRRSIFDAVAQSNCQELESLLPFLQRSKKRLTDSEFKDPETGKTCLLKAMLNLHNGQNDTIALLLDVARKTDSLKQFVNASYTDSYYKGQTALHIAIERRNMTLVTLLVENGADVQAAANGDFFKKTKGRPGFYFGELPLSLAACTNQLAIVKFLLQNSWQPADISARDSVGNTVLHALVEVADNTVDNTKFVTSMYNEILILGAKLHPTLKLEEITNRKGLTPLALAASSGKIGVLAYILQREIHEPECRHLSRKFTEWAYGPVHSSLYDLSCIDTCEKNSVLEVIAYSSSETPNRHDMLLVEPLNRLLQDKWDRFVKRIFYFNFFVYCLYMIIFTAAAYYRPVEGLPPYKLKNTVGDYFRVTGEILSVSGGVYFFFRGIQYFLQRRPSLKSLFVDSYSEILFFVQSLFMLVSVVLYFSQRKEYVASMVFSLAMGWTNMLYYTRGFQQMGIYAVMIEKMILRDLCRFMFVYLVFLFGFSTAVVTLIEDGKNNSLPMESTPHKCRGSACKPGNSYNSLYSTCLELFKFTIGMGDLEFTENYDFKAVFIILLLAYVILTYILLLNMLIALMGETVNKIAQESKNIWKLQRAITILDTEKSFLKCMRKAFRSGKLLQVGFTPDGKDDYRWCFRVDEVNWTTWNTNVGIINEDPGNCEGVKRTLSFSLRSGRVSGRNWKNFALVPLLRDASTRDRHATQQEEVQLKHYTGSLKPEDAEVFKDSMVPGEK
T4 sequence (O35433 2-838 Y511A limits assumed): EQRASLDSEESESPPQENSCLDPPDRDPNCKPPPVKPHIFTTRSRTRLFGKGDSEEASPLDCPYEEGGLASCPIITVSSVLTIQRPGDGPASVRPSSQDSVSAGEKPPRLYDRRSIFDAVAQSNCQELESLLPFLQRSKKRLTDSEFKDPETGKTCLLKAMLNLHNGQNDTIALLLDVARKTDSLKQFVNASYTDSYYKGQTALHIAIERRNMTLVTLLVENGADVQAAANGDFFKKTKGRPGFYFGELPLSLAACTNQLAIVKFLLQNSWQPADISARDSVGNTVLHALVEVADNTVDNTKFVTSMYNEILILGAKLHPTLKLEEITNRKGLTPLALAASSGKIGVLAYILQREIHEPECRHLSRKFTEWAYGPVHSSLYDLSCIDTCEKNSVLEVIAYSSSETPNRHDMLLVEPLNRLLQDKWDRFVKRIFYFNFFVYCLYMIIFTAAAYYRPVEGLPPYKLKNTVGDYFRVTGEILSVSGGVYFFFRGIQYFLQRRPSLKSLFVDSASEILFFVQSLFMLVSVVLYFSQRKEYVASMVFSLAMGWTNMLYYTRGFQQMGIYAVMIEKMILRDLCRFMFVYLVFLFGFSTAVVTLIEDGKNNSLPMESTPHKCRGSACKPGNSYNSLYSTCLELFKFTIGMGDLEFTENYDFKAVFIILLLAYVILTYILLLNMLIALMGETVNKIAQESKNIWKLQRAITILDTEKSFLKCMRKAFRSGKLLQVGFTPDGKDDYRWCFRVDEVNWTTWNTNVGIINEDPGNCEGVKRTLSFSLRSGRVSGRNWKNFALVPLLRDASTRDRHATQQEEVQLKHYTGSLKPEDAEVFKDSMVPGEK
T4 sequence (O35433 2-838 Y511A limits assumed): as above
T4 sequence (O35433 2-838 Y511A limits assumed): as above
T3 sequence (O35433 whole entry, the tested form may be a part): as the sequence (O35433 whole entry, stated change not applied) above
T3 sequence (O35433 2-838 limits assumed): as the sequence (O35433 2-838 Y511A limits assumed) above, with A510Y counted along it
T3 sequence (O35433 2-838 limits assumed): as the sequence (O35433 2-838 Y511A limits assumed) above, with A510Y counted along it
T3 sequence (O35433 2-838 limits assumed): as the sequence (O35433 2-838 Y511A limits assumed) above, with A510Y counted along it
T1 sequence (O35433 whole entry): as the sequence (O35433 whole entry, stated change not applied) above
T5 sequence (O35433 whole entry, stated change not applied): as above
T5 sequence (O35433 2-838 Y511A limits assumed): as the sequence (O35433 2-838 Y511A limits assumed) above
T5 sequence (O35433 2-838 Y511A limits assumed): as above
T5 sequence (O35433 2-838 Y511A limits assumed): as above
T6 sequence (O35433 whole entry Y511A): as the sequence (O35433 whole entry, stated change not applied) above, with Y511A counted along it
T6 sequence (O35433 2-838 Y511A limits assumed): as the sequence (O35433 2-838 Y511A limits assumed) above
T6 sequence (O35433 2-838 Y511A limits assumed): as above
T6 sequence (O35433 2-838 Y511A limits assumed): as above
T7 sequence (O35433 whole entry E600Q/E648A): as the sequence (O35433 whole entry, stated change not applied) above, with E600Q, E648A counted along it
T7 sequence (O35433 2-838 E600Q/E648A limits assumed): as the sequence (O35433 2-838 Y511A limits assumed) above, with A510Y, E599Q, E647A counted along it
T7 sequence (O35433 2-838 E600Q/E648A limits assumed): as the sequence (O35433 2-838 Y511A limits assumed) above, with A510Y, E599Q, E647A counted along it
T7 sequence (O35433 2-838 E600Q/E648A limits assumed): as the sequence (O35433 2-838 Y511A limits assumed) above, with A510Y, E599Q, E647A counted along it
T2 sequence (O35433 whole entry, stated change not applied): as the sequence (O35433 whole entry, stated change not applied) above
T2 sequence (O35433 2-838 limits assumed, stated change not applied): as the sequence (O35433 2-838 Y511A limits assumed) above, with A510Y counted along it
T2 sequence (O35433 2-838 limits assumed, stated change not applied): as the sequence (O35433 2-838 Y511A limits assumed) above, with A510Y counted along it
T2 sequence (O35433 2-838 Y511A limits assumed): as the sequence (O35433 2-838 Y511A limits assumed) above
T8 sequence (O35433 whole entry, stated change not applied): as the sequence (O35433 whole entry, stated change not applied) above
T8 sequence (O35433 2-838 limits assumed, stated change not applied): as the sequence (O35433 2-838 Y511A limits assumed) above, with A510Y counted along it
T8 sequence (O35433 2-838 Y511A limits assumed): as the sequence (O35433 2-838 Y511A limits assumed) above
T8 sequence (O35433 2-838 Y511A limits assumed): as above

## COc1cc(CNC(=O)CCCC/C=C/C(C)C)ccc1O [capsaicin]
rTRPV1 (wt) [1]; capsaicin 1 μM, +80 mV
  average current amplitude ICAP+80mV (±SEM), HEK293T, wt: 8.3 ± 1.2 nA
rTRPV1 (wt) [1]; whole-cell, −40 mV
  Hill coefficient nH for capsaicin, wt: 1.3
[2]
  Hill coefficient nH for capsaicin, 3wt/ya: 1.1
[3]
  capsaicin concentration required to achieve full TRPV1 activation, 4wt: 2 µM
[3]; [11]
  open probability, 4wt: 0.89 ± 0.10
  single-channel average amplitude, 4wt: 5.2 ± 0.4 pA
  unitary conductance, 4wt: 86 ± 3 pS
[4]; capsaicin 1 μM, +80 mV
  average current amplitude ICAP+80mV (±SEM), HEK293T, 4wt: 7.8 ± 1.8 nA
[4]; whole-cell, −40 mV
  Hill coefficient nH for capsaicin, 4wt: 1.4
[5]; capsaicin 100 μM, whole-cell voltage ramps −80 to +80 mV
  response of wt/3ya construct to capsaicin: robust outward-rectifying current; also recorded: robust capsaicin response
[5]; whole-cell, −40 mV
  Hill coefficient nH for capsaicin, wt/3ya: 1.1
rTRPV1 concatemer wt/3ya; 2 μM capsaicin
  single-channel average amplitude, wt/3ya: 4.8 ± 0.5 pA
  unitary conductance, wt/3ya: 80 ± 5 pS
rTRPV1 concatemer wt/3ya; 30 μM capsaicin
  single-channel average amplitude, wt/3ya: 4.9 ± 0.4 pA
  unitary conductance, wt/3ya: 82 ± 3 pS
rTRPV1 concatemer wt/3ya; single functional VBS
  capsaicin concentration required to achieve full TRPV1 activation, wt/3ya: 30 µM
[6]
  response of 4ya construct to capsaicin: insensitive; also recorded: nearly eliminated
[7]
  capsaicin response, 4qa vs 4wt: unaffected
[8]
  average current amplitude ICAP+80mV (±SEM), oocytes, 4wt: 4.7 ± 0.2 μA
rTRPV1 (wt) [9]
  average current amplitude ICAP+80mV (±SEM), oocytes, wt: 5.6 ± 0.3 μA
[10]
  Hill coefficient nH for capsaicin, 2wt/2ya: 1.2

From PMC4508619 (Scientific Reports, 2015)
